What was measured:
AMBEL (Ragweed, Common) = experiment: Postemergence herbicidal evaluation; assay type: in vivo, Ambrosia artemisifolia; conditions: postemergence
In short: (§1)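 Seedlings grown about two weeks were sprayed at 40 psi with compound dispersed in 50/50 acetone/water plus 0.5% TWEEN 20, at about 0.0156 to 0.500 kg/ha. Plants were kept in the greenhouse and scored 4–5 weeks later on a 0–9 visual scale against untreated controls.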

CASOB (Sicklepod) [1] = experiment: Postemergence herbicidal evaluation; assay type: in vivo, Cassia obtusifolia; conditions: postemergence
In short: as §1

[2] = system: CHEAL (Lambsquarters, Common); experiment: Postemergence herbicidal evaluation; assay type: in vivo, Chenopodium album; conditions: postemergence
In short: as §1

GALAP (Galium) [3] = experiment: Postemergence herbicidal evaluation; assay type: in vivo, Galium aparine; conditions: postemergence
In short: as §1

ECHCG (Barnyardgrass) = experiment: Postemergence herbicidal evaluation; assay type: in vivo, Echinochloa crus-galli; conditions: postemergence
In short: as §1

SETVI (Foxtail, Green) = experiment: Postemergence herbicidal evaluation; assay type: in vivo, Setaria viridis; conditions: postemergence
In short: as §1

[4] = system: GLXMAW (Soybean, Williams); experiment: Postemergence herbicidal evaluation; assay type: in vivo, Glycine max, (L.) Merr. cv Williams; conditions: postemergence
In short: as §1

ORYSAT (Rice, Tebonnet) = experiment: Postemergence herbicidal evaluation; assay type: in vivo, Oryza sativa, (L.) Tebonnet; conditions: postemergence
In short: as §1

CASOB (Sicklepod) [5] = experiment: Preemergence herbicidal evaluation; assay type: in vivo, Cassia obtusifolia; conditions: rated 4-5 weeks after treatment
In short: (§2)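 Test compound, dissolved in aqueous acetone, was sprayed over planted soil cups at an equivalent of about 0.0156 to 0.500 kg/ha; seeds had been mixed with potting soil. Greenhouse growth followed, with visual 0-9 scoring of injury at four to five weeks.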

GALAP (Galium) [6] = experiment: Preemergence herbicidal evaluation; assay type: in vivo, Galium aparine; conditions: rated 4-5 weeks after treatment
In short: as §2

ZEAMX (Corn, Field) = experiment: Preemergence herbicidal evaluation; assay type: in vivo, Zea mays; conditions: rated 4-5 weeks after treatment
In short: as §2

CYPIR (Rice Flatsedge) = experiment: Preemergence weed control under flooded paddy conditions; assay type: in vivo, Cyperus iria; conditions: rated 3-4 weeks after treatment
In short: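 First, seeds or propagules go into the top 0.5 cm of silt loam; next, water is held 1.5 to 3 cm over the soil; then compound (50/50 acetone/water) is pipetted into it at about 0.0313 to 0.500 kg/ha; finally plants are rated visually 0-9 after three to four weeks.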

CYPSE (Flatsedge) = experiment: as above; assay type: in vivo, Cyperus serotinus; conditions: rated 3-4 weeks after treatment
In short: (§3)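 Greenhouse paddy assay. Acetone/water (50/50 v/v) solutions dosed into flood water, equivalent to about 0.0313 to 0.500 kg/ha active ingredient, over seeds planted 0.5 cm deep in silt loam. Score: 0-9 visual, based on stand, vigor, malformation, size and chlorosis, 3 to 4 weeks after treatment.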

[7] = system: SAGPY (Arrowhead (Pygmaea)); experiment: as above; assay type: in vivo, Sagittaria pygmaea; conditions: rated 3-4 weeks after treatment
In short: as §3

## CC(C)OC(=O)CN1C(=O)CSC1=Nc1cc(-n2c(=O)cc(C(F)(F)F)n(C)c2=O)c(F)cc1Cl [Compound 110]
AMBEL (Ragweed, Common); rate 0.0158 kg/ha
  Herbicidal rating AMBEL: 5.0
AMBEL (Ragweed, Common); rate 0.0315 kg/ha
  Herbicidal rating AMBEL: 4.0
AMBEL (Ragweed, Common); rate 0.0630 kg/ha
  Herbicidal rating AMBEL: 9.0
CASOB (Sicklepod) [1]; rate 0.0158 kg/ha
  Herbicidal rating CASOB: 1.0
CASOB (Sicklepod) [1]; rate 0.0315 kg/ha
  Herbicidal rating CASOB: 1.0
CASOB (Sicklepod) [1]; rate 0.0630 kg/ha
  Herbicidal rating CASOB: 1.0
[2]; rate 0.0158 kg/ha
  Herbicidal rating CHEAL: 9.0
[2]; rate 0.0315 kg/ha
  Herbicidal rating CHEAL: 9.0
[2]; rate 0.0630 kg/ha
  Herbicidal rating CHEAL: 9.0
GALAP (Galium) [3]; rate 0.0158 kg/ha
  Herbicidal rating GALAP: 1.0
GALAP (Galium) [3]; rate 0.0315 kg/ha
  Herbicidal rating GALAP: 3.0
GALAP (Galium) [3]; rate 0.0630 kg/ha
  Herbicidal rating GALAP: 4.0
ECHCG (Barnyardgrass); rate 0.0158 kg/ha
  Herbicidal rating ECHCG: 1.0
ECHCG (Barnyardgrass); rate 0.0315 kg/ha
  Herbicidal rating ECHCG: 5.0
ECHCG (Barnyardgrass); rate 0.0630 kg/ha
  Herbicidal rating ECHCG: 4.0
SETVI (Foxtail, Green); rate 0.0158 kg/ha
  Herbicidal rating SETVI: 1.0
SETVI (Foxtail, Green); rate 0.0315 kg/ha
  Herbicidal rating SETVI: 9.0
SETVI (Foxtail, Green); rate 0.0630 kg/ha
  Herbicidal rating SETVI: 9.0
[4]; rate 0.0158 kg/ha
  Herbicidal rating GLXMAW: 5.0
[4]; rate 0.0315 kg/ha
  Herbicidal rating GLXMAW: 6.5
[4]; rate 0.0630 kg/ha
  Herbicidal rating GLXMAW: 6.5
ORYSAT (Rice, Tebonnet); rate 0.0158 kg/ha
  Herbicidal rating ORYSAT: 2.5
ORYSAT (Rice, Tebonnet); rate 0.0315 kg/ha
  Herbicidal rating ORYSAT: 3.5
ORYSAT (Rice, Tebonnet); rate 0.0630 kg/ha
  Herbicidal rating ORYSAT: 3.5
CASOB (Sicklepod) [5]; rate 0.0156 kg/ha
  Preemergence herbicidal rating CASOB: 0.0
CASOB (Sicklepod) [5]; rate 0.0313 kg/ha
  Preemergence herbicidal rating CASOB: 0.0
CASOB (Sicklepod) [5]; rate 0.0625 kg/ha
  Preemergence herbicidal rating CASOB: 0.0
CASOB (Sicklepod) [5]; rate 0.1250 kg/ha
  Preemergence herbicidal rating CASOB: 2.0
CASOB (Sicklepod) [5]; rate 0.2500 kg/ha
  Preemergence herbicidal rating CASOB: 5.0
CASOB (Sicklepod) [5]; rate 0.5000 kg/ha
  Preemergence herbicidal rating CASOB: 9.0
GALAP (Galium) [6]; rate 0.0156 kg/ha
  Preemergence herbicidal rating GALAP: 0.0
GALAP (Galium) [6]; rate 0.0313 kg/ha
  Preemergence herbicidal rating GALAP: 0.0
GALAP (Galium) [6]; rate 0.0625 kg/ha
  Preemergence herbicidal rating GALAP: 0.0
GALAP (Galium) [6]; rate 0.1250 kg/ha
  Preemergence herbicidal rating GALAP: 0.0
GALAP (Galium) [6]; rate 0.2500 kg/ha
  Preemergence herbicidal rating GALAP: 2.0
ZEAMX (Corn, Field); rate 0.0156 kg/ha
  Preemergence herbicidal rating ZEAMX: 0.0
ZEAMX (Corn, Field); rate 0.0313 kg/ha
  Preemergence herbicidal rating ZEAMX: 0.5
ZEAMX (Corn, Field); rate 0.0625 kg/ha
  Preemergence herbicidal rating ZEAMX: 1.0
ZEAMX (Corn, Field); rate 0.1250 kg/ha
  Preemergence herbicidal rating ZEAMX: 2.5
ZEAMX (Corn, Field); rate 0.2500 kg/ha
  Preemergence herbicidal rating ZEAMX: 3.5
ZEAMX (Corn, Field); rate 0.5000 kg/ha
  Preemergence herbicidal rating ZEAMX: 4.0
CYPIR (Rice Flatsedge); 0.0313 kg/ha
  CYPIR herbicidal effect rating: 3.0
CYPIR (Rice Flatsedge); 0.0625 kg/ha
  CYPIR herbicidal effect rating: 4.0
CYPIR (Rice Flatsedge); 0.1250 kg/ha
  CYPIR herbicidal effect rating: 7.0
CYPIR (Rice Flatsedge); 0.2500 kg/ha
  CYPIR herbicidal effect rating: 8.0
CYPSE (Flatsedge); 0.0313 kg/ha
  CYPSE herbicidal effect rating: 0.0
CYPSE (Flatsedge); 0.0625 kg/ha
  CYPSE herbicidal effect rating: 0.0
CYPSE (Flatsedge); 0.1250 kg/ha
  CYPSE herbicidal effect rating: 0.0
CYPSE (Flatsedge); 0.2500 kg/ha
  CYPSE herbicidal effect rating: 0.0
[7]; 0.0313 kg/ha
  SAGPY herbicidal effect rating: 6.0
[7]; 0.0625 kg/ha
  SAGPY herbicidal effect rating: 7.0
[7]; 0.1250 kg/ha
  SAGPY herbicidal effect rating: 7.0
[7]; 0.2500 kg/ha
  SAGPY herbicidal effect rating: 8.0

## Cn1c(C(F)(F)F)cc(=O)n(-c2cc(N=C3SCC(=O)N3CC(=O)OC3CCCC3)c(Cl)cc2F)c1=O [Compound 120, Cyclopentyl 2-{{2-chloro-5-[3,6-dihydro-3-methyl-2,6-dioxo-4-(trifluoromethyl)-1(2H)-pyrimidinyl]-4-fluorophenyl}imino}-4-oxo-3-thiazolidineacetate]
AMBEL (Ragweed, Common); rate 0.0156 kg/ha
  Herbicidal rating AMBEL: 9.0
AMBEL (Ragweed, Common); rate 0.0313 kg/ha
  Herbicidal rating AMBEL: 9.0
AMBEL (Ragweed, Common); rate 0.0625 kg/ha
  Herbicidal rating AMBEL: 9.0
CASOB (Sicklepod) [1]; rate 0.0156 kg/ha
  Herbicidal rating CASOB: 3.0
CASOB (Sicklepod) [1]; rate 0.0313 kg/ha
  Herbicidal rating CASOB: 5.0
CASOB (Sicklepod) [1]; rate 0.0625 kg/ha
  Herbicidal rating CASOB: 8.0
[2]; rate 0.0156 kg/ha
  Herbicidal rating CHEAL: 9.0
[2]; rate 0.0313 kg/ha
  Herbicidal rating CHEAL: 9.0
[2]; rate 0.0625 kg/ha
  Herbicidal rating CHEAL: 9.0
GALAP (Galium) [3]; rate 0.0156 kg/ha
  Herbicidal rating GALAP: 2.0
GALAP (Galium) [3]; rate 0.0313 kg/ha
  Herbicidal rating GALAP: 3.0
GALAP (Galium) [3]; rate 0.0625 kg/ha
  Herbicidal rating GALAP: 3.0
ECHCG (Barnyardgrass); rate 0.0156 kg/ha
  Herbicidal rating ECHCG: 1.0
ECHCG (Barnyardgrass); rate 0.0313 kg/ha
  Herbicidal rating ECHCG: 2.0
ECHCG (Barnyardgrass); rate 0.0625 kg/ha
  Herbicidal rating ECHCG: 5.0
SETVI (Foxtail, Green); rate 0.0156 kg/ha
  Herbicidal rating SETVI: 4.0
SETVI (Foxtail, Green); rate 0.0313 kg/ha
  Herbicidal rating SETVI: 9.0
SETVI (Foxtail, Green); rate 0.0625 kg/ha
  Herbicidal rating SETVI: 9.0
[4]; rate 0.0156 kg/ha
  Herbicidal rating GLXMAW: 7.5
[4]; rate 0.0313 kg/ha
  Herbicidal rating GLXMAW: 9.0
[4]; rate 0.0625 kg/ha
  Herbicidal rating GLXMAW: 9.0
ORYSAT (Rice, Tebonnet); rate 0.0156 kg/ha
  Herbicidal rating ORYSAT: 2.0
ORYSAT (Rice, Tebonnet); rate 0.0313 kg/ha
  Herbicidal rating ORYSAT: 2.5
ORYSAT (Rice, Tebonnet); rate 0.0625 kg/ha
  Herbicidal rating ORYSAT: 2.5
CASOB (Sicklepod) [5]; rate 0.0156 kg/ha
  Preemergence herbicidal rating CASOB: 0.0
CASOB (Sicklepod) [5]; rate 0.0313 kg/ha
  Preemergence herbicidal rating CASOB: 0.0
CASOB (Sicklepod) [5]; rate 0.0625 kg/ha
  Preemergence herbicidal rating CASOB: 3.0
CASOB (Sicklepod) [5]; rate 0.1250 kg/ha
  Preemergence herbicidal rating CASOB: 4.0
CASOB (Sicklepod) [5]; rate 0.2500 kg/ha
  Preemergence herbicidal rating CASOB: 4.0
GALAP (Galium) [6]; rate 0.0156 kg/ha
  Preemergence herbicidal rating GALAP: 0.0
GALAP (Galium) [6]; rate 0.0313 kg/ha
  Preemergence herbicidal rating GALAP: 0.0
GALAP (Galium) [6]; rate 0.0625 kg/ha
  Preemergence herbicidal rating GALAP: 0.0
GALAP (Galium) [6]; rate 0.1250 kg/ha
  Preemergence herbicidal rating GALAP: 0.0
GALAP (Galium) [6]; rate 0.2500 kg/ha
  Preemergence herbicidal rating GALAP: 0.0
ZEAMX (Corn, Field); rate 0.0156 kg/ha
  Preemergence herbicidal rating ZEAMX: 0.0
ZEAMX (Corn, Field); rate 0.0313 kg/ha
  Preemergence herbicidal rating ZEAMX: 0.0
ZEAMX (Corn, Field); rate 0.0625 kg/ha
  Preemergence herbicidal rating ZEAMX: 0.0
ZEAMX (Corn, Field); rate 0.1250 kg/ha
  Preemergence herbicidal rating ZEAMX: 0.0
ZEAMX (Corn, Field); rate 0.2500 kg/ha
  Preemergence herbicidal rating ZEAMX: 3.0
CYPIR (Rice Flatsedge); 0.0313 kg/ha
  herbicidal effect rating, CYPIR: 2.0
CYPIR (Rice Flatsedge); 0.0625 kg/ha
  herbicidal effect rating, CYPIR: 2.5
CYPIR (Rice Flatsedge); 0.1250 kg/ha
  herbicidal effect rating, CYPIR: 3.5
CYPIR (Rice Flatsedge); 0.2500 kg/ha
  herbicidal effect rating, CYPIR: 9.0
CYPSE (Flatsedge); 0.0313 kg/ha
  herbicidal effect rating, CYPSE: 0.0
CYPSE (Flatsedge); 0.0625 kg/ha
  herbicidal effect rating, CYPSE: 0.0
CYPSE (Flatsedge); 0.1250 kg/ha
  herbicidal effect rating, CYPSE: 0.0
CYPSE (Flatsedge); 0.2500 kg/ha
  herbicidal effect rating, CYPSE: 3.5
[7]; 0.0313 kg/ha
  herbicidal effect rating, SAGPY: 0.0
[7]; 0.0625 kg/ha
  herbicidal effect rating, SAGPY: 0.0
[7]; 0.1250 kg/ha
  herbicidal effect rating, SAGPY: 2.0
[7]; 0.2500 kg/ha
  herbicidal effect rating, SAGPY: 7.5
